Measured values reported in patent US9957273B2, “5-substituted 7- [4-(2-pyridyl)phenylmethylamino] -3-isopropylpyrazolo4,3-D]pyrimidine derivatives, use thereof as medicaments, and pharmaceutical compositions” (USTAV EXPERIMENTALNI BOTANIKY AV CR, V.V.I., priority 2015, dated 2018).

Tests used:
Type in all cases: cell-based
[1] = test system: K562 (human chronic myelogenous leukaemia); experiment: MTT cytotoxicity assay, leukemic cell line K562; settings: Homo sapiens, K562, 72 h, three days
Description: (§1) Cytotoxicity of the compounds is the major property determining their antileukemic efficacy in vivo. One of the parameters used, as the basis for cytotoxicity assays, is the metabolic activity of viable cells. For example, a microtiter assay, which uses (3-(4,5-dimethylthiazol-2-yl)-2,5-diphenyltetrazolium bromide (MTT), is widely used to quantitate cell proliferation and cytotoxicity. This assay is widely used in drug screening programs and in chemosensitivity testing. Because only metabolically active living cells reduce MTT to correspond purple formazan dye, these assays detect viable cells exclusively. The quantity of reduced MTT corresponds to the number of vital cells in the culture.
(§2) The compounds were assayed using the following leukemic cell lines: K562 (human chronic myelogenous leukaemia), HL60 (human promyelocytic leukaemia), CEM (human lymphoblastoid leukaemia), THP1 (human monocytic cell line), MV4; 11 (acute myelocytic leukemia). All cell lines were grown in RPMI medium supplemented with fetal bovine serum and L-glutamine and maintained at 37° C. in a humidified atmosphere with 5% CO2. For cytotoxicity assays, 2000-5000 cells were seeded into each well of 96 well plate, allowed to stabilize for at least 8 h and then tested compounds were added at various concentrations ranging from 100 to 0.01 μM in triplicates. After three days, MTT solution (5 mg/ml; Sigma, St. Louis, USA) was added to cells and medium was replaced with DMSO after five hours. The absorbance was measured at 620 nm by employing a microplate reader. MTT assays were repeated 3 times for each drug application and untreated cells were used as reference.

[2] = test system: CEM (human lymphoblastoid leukaemia); experiment: MTT cytotoxicity assay, leukemic cell line CEM; settings: Homo sapiens, 72 h, three days
Description: as §1, §2

[3] = test system: MV4;11 (acute myelocytic leukemia); experiment: MTT cytotoxicity assay, leukemic cell line MV4;11; settings: Homo sapiens, MV4-11, 72 h, three days
Description: as §1, §2

[4] = test system: MCF7 (breast adenocarcinoma); experiment: MTT cytotoxicity assay, solid cancer cell line MCF7; settings: Homo sapiens, MCF7, 72 h, three days
Experimental: as §2, with “following” for “following leukemic”, “G361 (malignant melanoma), MCF7 (breast adenocarcinoma), PLC/PRF/5 (liver hepatoma), PANC-1 (pancreatic carcinoma) and HCT116 (colon carcinoma).” for “K562 (human chronic myelogenous leukaemia), HL60 (human promyelocytic leukaemia), CEM (human lymphoblastoid leukaemia), THP1 (human monocytic cell line), MV4; 11 (acute myelocytic leukemia).”, “DMEM” for “RPMI”, “4000-10000” for “2000-5000”, “of a” for “of”, “16” for “8”

[5] = test system: PLC/PRF/5 (liver hepatoma); experiment: MTT cytotoxicity assay, solid cancer cell line PLC/PRF/5; settings: Homo sapiens, PLC-PRF-5, 72 h, three days
Experimental: as §2, with “following” for “following leukemic”, “G361 (malignant melanoma), MCF7 (breast adenocarcinoma), PLC/PRF/5 (liver hepatoma), PANC-1 (pancreatic carcinoma) and HCT116 (colon carcinoma).” for “K562 (human chronic myelogenous leukaemia), HL60 (human promyelocytic leukaemia), CEM (human lymphoblastoid leukaemia), THP1 (human monocytic cell line), MV4; 11 (acute myelocytic leukemia).”, “DMEM” for “RPMI”, “4000-10000” for “2000-5000”, “of a” for “of”, “16” for “8”

[6] = test system: HCT116 (colon carcinoma); experiment: MTT cytotoxicity assay, solid cancer cell line HCT116; settings: Homo sapiens, HCT-116, 72 h, three days
Experimental: as §2, with “following” for “following leukemic”, “G361 (malignant melanoma), MCF7 (breast adenocarcinoma), PLC/PRF/5 (liver hepatoma), PANC-1 (pancreatic carcinoma) and HCT116 (colon carcinoma).” for “K562 (human chronic myelogenous leukaemia), HL60 (human promyelocytic leukaemia), CEM (human lymphoblastoid leukaemia), THP1 (human monocytic cell line), MV4; 11 (acute myelocytic leukemia).”, “DMEM” for “RPMI”, “4000-10000” for “2000-5000”, “of a” for “of”, “16” for “8”

[7] = test system: breast carcinoma cell line MCF7; experiment: Cell cycle profile by BrdU/propidium iodide flow cytometry; settings: asynchronously growing MCF7, 24 h, FIG. 1
Experimental: Sub-confluent cells were treated with test compounds at different concentrations for 24 h. The cultures were pulse-labeled with […] 5-bromo-20-deoxyuridine (BrdU) for 30 min at 37° C. prior to harvesting. The cells were then washed in PBS, fixed with 70% ethanol, and denatured in 2 M HCl. Following neutralization, the cells were stained with anti-BrdU fluorescein-labeled antibodies, washed, stained with propidium iodide and analyzed by flow cytometry using a 488 nm laser

[8] = test system: PARP-1; experiment: Immunoblotting of apoptotic markers in HCT116 cells: PARP-1; settings: 24 hours, FIG. 4
Experimental: (§3) Effect of novel compounds on apoptosis was confirmed by immunoblotting analysis of selected apoptotic proteins. For immunoblotting, cell were harvested, washed three times with ice-cold PBS and lysed in a buffer (50 mM Tris, pH 7.4, 250 mM NaCl, 5 mM EDTA, 50 mM NaF, 1 mM Na3VO4, 1% Nonidet P40) containing mixture of protease and phosphatase inhibitors (Sigma-Aldrich). 20 μg of total proteins were separated by SDS-polyacrylamide gel electrophoresis (SDS-PAGE) and transferred onto nitrocellulose membranes. Membranes were blocked in 5% milk and 0.1% Tween 20 in PBS and probed overnight with specific antibodies. Specific antibodies were purchased from SigmaAldrich (anti a-tubulin, clone DM1A), Santa Cruz Biotechnology (anti-Mcl-1, clone S-19; anti-PARP, clone F-2; anti-Mdm-2, clone SMP14; anti-Bcl-2), DAKO Cytomation Cell Signaling (anti-PUMA) or were a generous gift from Dr. B. Vojtesek (anti-p53, clone DO-1). All primary antibodies were diluted in PBS containing 5% powdered milk; 0.1% Tween 20. Peroxidase conjugated rabbit anti-mouse immunoglobulin or porcine anti-rabbit immunoglobulin antisera (DAKO) were used as the secondary antibodies and visualised with ECL reagents (GE-Healthcare Life Sciences).

[9] = test system: Mcl-1; experiment: Immunoblotting of apoptotic markers in HCT116 cells: Mcl-1; settings: 24 hours, FIG. 4
Experimental: as §3

[10] = test system: HUVECs (human umbilical vein endothelial cells); experiment: HUVEC proliferation assay (crystal violet); settings: Homo sapiens, HUVEC, 72 h, read-out: Inhibition of proliferation (EC50)
Experimental: (§4) To verify that novel compounds have anti-vascularisation properties, we analyzed their influence on the proliferation and migration of HUVECs. HUVECs (human umbilical vein endothelial cells) were purchased from Promocell (Heidelberg, Germany) and cultured in endothelial cell growth medium (ECGM, Promocell, Heidelberg, Germany) containing 10% FCS (Biochrom, Berlin, Germany). Experiments were performed using cells at passage 3.
For proliferation assay, 1.5×10^3 HUVECs were cultured for 24 h. Afterwards, cells were either left untreated or treated with novel compounds for 72 h. Proliferation assay was performed using crystal violet as described previously (Koltermann et al. 2007, Cell Mol. Life Sci. 64:1715-1722).

[11] = test system: HUVECs (human umbilical vein endothelial cells); experiment: HUVEC migration (scratch) assay; settings: 16 h, read-out: Inhibition of migration (EC50)
Experimental: as §4
For migration assay, confluent HUVECs were scratched with a pipette tip and immediately treated with either starvation medium M199 (serum-free, negative control; PAN Biotech) or full endothelial cell growth medium (positive control). After 16 h, cells were fixed with 3% formaldehyde and images were taken using the TILLvisON system (Lochham, Germany) connected to an Axiovert 200 microscope (Zeiss, Germany). Evaluation of pictures was made by S.CO LifeScience (Garching, Germany). Migration was quantified as the ratio of the area covered with cells and the area of the cell free wound.

CC(C)c1[nH]nc2c(NCc3ccc(-c4ccccn4)cc3)nc(NCC(O)CN)nc12 (centres unmarked) [Compound 45]
IC50 [1]: 0.7 µM | IC50 [2]: 0.54 µM | IC50 [3]: 0.51 µM | IC50 [4]: 0.31 µM | IC50 [5]: 0.2 µM | IC50 [6]: 0.37 µM | effect on the cell cycle of MCF7 [7]: potently arrested cells in S, G2 and M phases | PARP-1 cleavage (immunoblot) [8]: appearance of the caspase-3-cleaved PARP-1 fragment at 89 kDa | level of anti-apoptotic protein Mcl-1 (immunoblot) [9]: dose-dependent decrease | EC50 [10]: 176 nM | EC50 [11]: 500 nM
